Earlier results, collected in patent US5183802A, “Pharmaceutical compositions for intranasal administration of calcitonin” (ISF Societa per Azioni, priority 1987, dated 1993).

Conditions: nasal absorption of insulin; compared with sodium caprate

For `CC1(C)[C@@H](O)CC[C@]2(C)[C@H]3C(=O)C=C4[C@@H]5C[C@@](C)(C(=O)[O-])CC[C@]5(C)CC[C@@]4(C)[C@]3(C)CC[C@@H]12.[Na+]` [sodium glycyrrhetinate], the “strength as absorption-enhancing agent for insulin” value is given as “weaker than sodium caprate”.
